For 1 compound, Kd results are on record in publication PMC1867856, “Structural Insights into the Evolution of a Non-Biological Protein: Importance of Surface Residues in Protein Fold Optimization” (PLoS ONE, 2007).

For orientation: Kd means the equilibrium constant for the complex coming apart. Read a low Kd as higher affinity.

Common to all, as to format: binding, synthetic construct
In one experiment the target is T1, protein 18-19 (N32D).
T1 construct: 80-residue artificial protein as N-terminal MBP fusion
Kind of experiment: equilibrium ultrafiltration with γ-[…]-ATP.

For a further experiment, the target named is T2, protein 18-19.
T2 construct: Kd measured on the N-terminal MBP fusion; crystal structure model residues 9-71
Kind of experiment: X-ray crystal structure ([…] Å) and equilibrium ultrafiltration with γ-[…]-ATP.

Another experiment addresses T3, protein 18-19 (D65V).
T3 construct: 80-residue artificial protein as N-terminal MBP fusion
Nature of the experiment: equilibrium ultrafiltration with γ-[…]-ATP.

As to `Nc1ncnc2c1ncn2[C@@H]1O[C@H](COP(=O)(O)OP(=O)(O)OP(=O)(O)O)[C@@H](O)[C@H]1O` [ATP], the Kd at protein 18-19 (N32D) is 360 ± 12 nM; at protein 18-19, 1100 ± 78 nM; at protein 18-19 (D65V) it was 640 ± 28 nM.
